In patent publication US20240327406A1, “POTASSIUM CHANNEL MODULATORS” (Autifony Therapeutics Limited, priority 2021, published 2024):
Where two headings read alike, the source gives them in different places.

Experiments:
[1] = target: T1, human Kv3.1 channels (hKv3.1) (Homo sapiens, UniProt P48547); test: Measurement of Kv3 channel modulation: Kv3.1 assay (IonWorks Quattro whole-cell electrophysiology); format: cell-based; conditions: for Kv3.1 max R %: normalised to maximum effect of reference compound (50 microM); for EC50: rounded to one decimal place, read-out: Kv3.1 pEC50 (converted)
T1 sequence (P48547 1-501 limits assumed): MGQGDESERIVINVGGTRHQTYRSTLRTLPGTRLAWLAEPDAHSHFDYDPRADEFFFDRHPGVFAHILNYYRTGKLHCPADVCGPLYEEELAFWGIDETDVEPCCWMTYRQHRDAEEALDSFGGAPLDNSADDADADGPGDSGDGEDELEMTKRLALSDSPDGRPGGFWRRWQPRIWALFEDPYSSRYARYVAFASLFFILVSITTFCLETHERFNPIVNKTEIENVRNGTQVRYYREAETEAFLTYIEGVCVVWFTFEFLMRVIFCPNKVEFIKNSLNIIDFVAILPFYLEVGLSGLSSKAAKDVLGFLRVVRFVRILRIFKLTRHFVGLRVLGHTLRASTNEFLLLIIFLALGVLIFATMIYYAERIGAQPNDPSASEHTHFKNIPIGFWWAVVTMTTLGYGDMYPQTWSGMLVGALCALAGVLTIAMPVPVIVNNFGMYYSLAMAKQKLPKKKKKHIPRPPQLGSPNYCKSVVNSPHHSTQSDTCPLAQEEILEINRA
Experimental: The ability of the compounds of the invention to modulate the voltage-gated potassium channel subtypes Kv3.4/Kv3.3/Kv3.2/Kv3.1 may be determined using the following assay. Analogous methods may be used to investigate the ability of the compounds of the invention to modulate other channel subtypes.
Human embryonic kidney (HEK)-hKv3.1 cell line is generated by transfecting HEK-293 cells with an expression vector with human Kv3.1 (NM_004976.4). Cells are cultured with MEM supplemented with 10% Heat-Inactivated FBS, 2 mM L-glutamine, 1% Penicillin-Streptomycin, and 0.6 mg/ml of Geneticin (G418). HEK-hKv3.1b cells were amplified in T175 cm2 flask at 37° C. with 5% CO2, using MEM amplification medium, containing the G418 selection antibiotic (0.6 mg/ml). Cells were detached every 3-4 days, using DPBS to wash twice the flask, then TrypLE to dislodge the cells, and re-plated at a density of 2-4×10^6 cells/flask.
The day of the experiment, cells are removed from the incubator and the culture medium removed. Cells are washed with 5 ml of Dulbecco's PBS (DPBS) calcium and magnesium free and detached by the addition of 3 ml Versene (Invitrogen, Italy) followed by a brief incubation at 37° C. for 5 minutes. The flask is tapped to dislodge cells and 10 ml of DPBS containing calcium and magnesium is added to prepare a cell suspension. The cell suspension is then placed into a 15 ml centrifuge tube and centrifuged for 2 min at 1200 rpm. After centrifugation, the supernatant is removed and the cell pellet re-suspended in 4 ml of DPBS containing calcium and magnesium using a 5 ml pipette to break up the pellet. Cell suspension volume is then corrected to give a cell concentration for the assay of approximately 3 million cells per ml.
Experiments are conducted at r.t. using IonWorks Quattro™ planar array electrophysiology technology (Molecular Devices Corp.) with PatchPlate™ PPC. Stimulation protocols and data acquisition are carried out using a microcomputer (Dell Pentium 4). Planar electrode hole resistances (Rp) are determined by applying a 10 mV voltage step across each well. These measurements are performed before cell addition. After cell addition and seal formation, a seal test is performed by applying a voltage step from −80 mV to −70 mV for 160 ms. Following this, amphotericin-B solution is added to the intracellular face of the electrode to achieve intracellular access. Cells are held at −70 mV. Leak subtraction is conducted in all experiments by applying 50 ms hyperpolarizing (10 mV) prepulses to evoke leak currents followed by a 20 ms period at the holding potential before test pulses.
For hKv3.2 and hKv3.1, assays from the holding potential of −70 mV, a first test pulse at −15 mV was applied for 100 ms and after 100 ms at −70 mV a second pulse at +40 mV was applied for 50 ms. Cells were then maintained for 100 ms at −100 mV and another pulse from […] to +40 mV (duration 50 ms) was applied to clamp later the voltage at −40 mV during 200 ms
The intracellular solution contains the following (in mM): K-gluconate 100, KCl 54, MgCl2 3.2, HEPES 5, adjusted to pH 7.3 with KOH. Amphotericin-B solution is prepared as 50 mg/ml stock solution in DMSO and diluted to a final working concentration of 0.1 mg/ml in intracellular solution.
Compounds of use in the invention (or reference compounds such as N-cyclohexyl-N-[(7,8-dimethyl-2-oxo-1,2-dihydro-3-quinolinyl)methyl]-N′-phenylurea) are dissolved in dimethylsulfoxide (DMSO) at a stock concentration of 10 mM. […] Each dilution (1 μL) is transferred to another compound plate and external solution containing 0.05% pluronic acid (66 μL) is added. 3.5 μL from each plate containing a compound of the invention is added and incubated with the cells during the IonWorks Quattro™ experiment. The final assay dilution is 200 and the final compound concentrations are in the range 50 μM to 50 nM.

[2] = Determination of in vivo pharmacokinetic parameters (blood and brain concentrations); conditions: male, rat; for Kp: brain and blood, oral dosing 1 mg/kg, read-out: AUC B/B (brain/blood) ratio; for Kp at 0.5 h: brain and heart blood, intravenous, 0.5 mg/kg, 0.5 h after dose administration, read-out: Brain/Heart Blood conc @0.5 hr
Experimental: Adult male rats (Charles River, Italy) are dosed with test compound orally at 1 mg/kg (5 ml/kg, in 5% v/v DMSO, 0.5% w/v HPMC in water) and intravenously at 0.5 mg/kg (2 ml/kg, in 5% v/v DMSO 40% w/v PEG400 in saline). After oral administration, blood samples are collected under deep Isofluorane anesthesia from the portal vein and heart of each rat (1 rat per time point). After intravenous administration, serial blood samples are collected from the lateral tail vein of each rat. Blood and brain samples are collected at a single timepoint of 0.5 h after dose administration for these animals. In all cases, blood samples are collected into potassium EDTA tubes.
A further group of rats (n=1 per test compound) receive a single intravenous administration of the PgP transport inhibitor, Elacridar (3 mg/kg) shortly before the oral administration of the test compound at 1 mg/kg, as above.
Blood and brain samples can be assayed for test compound concentration using a method based on protein precipitation with acetonitrile followed by HPLC/MS-MS analysis with an optimized analytical method.
The concentrations of test compound in blood (expressed as ng/ml) and brain (expressed as ng/g) at the different time points following either oral or intravenous dosing are analysed using a non-compartmental pharmacokinetic model using WinNonLin Professional version 4.1. The following parameters are derived:
Intravenous dosing: Maximum concentration over time (Cmax), integrated concentration over time (AUC), clearance (Clb), volume of distribution (Vss), half-life (t1/2) and Brain/Heart Blood conc @0.5 hr.
Oral dosing: Cmax, time of maximum concentration (Tmax), AUC, bioavailability (F %), fraction absorbed (Fa %), blood to brain ratio (AUC B/B), and Fold-change in AUC B/B in the presence of Elacridar.

[3] = Table 2, Example compounds, some compounds with two data sets (n given in cell)

Compound	Kv3.1 max R % ([1]; Table 2, Example compounds)	EC50 [1, 3]	Kp [2]	Kp at 0.5 h [2]	EC50 ([1]; Table 3, Reference Examples and corresponding Examples)
O=c1[nH]c2cccnc2n1-c1cnc(Oc2cccc3c2C2(CC2)CO3)cn1 [Example 8, 3-(5-spiro[2H-benzofuran-3,1′-cyclopropane]-4-yloxypyrazin-2-yl)-1H-imidazo[4,5-b]pyridin-2-one]	204%	200 nM	< 0.1	< 0.1	
O=c1[nH]c2cccnc2n1-c1cnc(Oc2cccc3c2C2(CC2)CO3)nc1 [Example 13, 3-(2-{2H-spiro[1-benzofuran-3,1′-cyclopropane]oxy}pyrimidin-5-yl)-1H,2H,3H-imidazo[4,5-b]pyridin-2-one]	194%	200 nM	0.12	0.13	
Cc1ncc2[nH]c(=O)n(-c3ccc(Oc4cccc(OC(F)(F)F)c4)nc3)c2n1 [Example 24, 2-methyl-9-[6-[3-(trifluoromethoxy)phenoxy]-3-pyridyl]-7H-purin-8-one]	144%	1000 nM	0.29	0.33	
Cc1ncc2[nH]c(=O)n(-c3ccc(Oc4cccc5c4C4(CC4)CO5)nc3)c2n1 [Example 26, 2-methyl-9-(6-spiro[2H-benzofuran-3,1′-cyclopropane]-4-yloxy-3-pyridyl)-7H-purin-8-one]	135%	50.1 nM	< 0.1	< 0.1	
CC1(C)COc2cccc(Oc3ncc(-n4c(=O)[nH]c5cccnc54)cn3)c21 [Example 33, 3-[2-[(3,3-dimethyl-2H-benzofuran-4-yl)oxy]pyrimidin-5-yl]-1H-imidazo[4,5-b]pyridin-2-one]	194%	794 nM	0.65	0.63	631 nM
